Laboratory results as given in ChEMBL document CHEMBL2203065, “Synthesis and glycosidase inhibitory activity of novel (2-phenyl-4H-benzopyrimedo[2,1-b]-thiazol-4-yliden)acetonitrile derivatives” (Bioorg Med Chem Lett, 2012).
pIC50: −log10 of the molar value.

Legend:
[1] = Inhibition of intestinal glucosidase in Swiss mouse intestinal extracts; details: for pIC50: read-out: IC50
[2] = Inhibition of pancreatic glucosidase in Swiss mouse pancreatic extracts
Pancreatic alpha-amylase = molecular target: T1, Pancreatic alpha-amylase (Sus scrofa, UniProt P00690); test: Inhibition of porcine pancreatic alpha amylase using starch as substrate by Bernfeld method
T1 sequence (P00690 whole entry): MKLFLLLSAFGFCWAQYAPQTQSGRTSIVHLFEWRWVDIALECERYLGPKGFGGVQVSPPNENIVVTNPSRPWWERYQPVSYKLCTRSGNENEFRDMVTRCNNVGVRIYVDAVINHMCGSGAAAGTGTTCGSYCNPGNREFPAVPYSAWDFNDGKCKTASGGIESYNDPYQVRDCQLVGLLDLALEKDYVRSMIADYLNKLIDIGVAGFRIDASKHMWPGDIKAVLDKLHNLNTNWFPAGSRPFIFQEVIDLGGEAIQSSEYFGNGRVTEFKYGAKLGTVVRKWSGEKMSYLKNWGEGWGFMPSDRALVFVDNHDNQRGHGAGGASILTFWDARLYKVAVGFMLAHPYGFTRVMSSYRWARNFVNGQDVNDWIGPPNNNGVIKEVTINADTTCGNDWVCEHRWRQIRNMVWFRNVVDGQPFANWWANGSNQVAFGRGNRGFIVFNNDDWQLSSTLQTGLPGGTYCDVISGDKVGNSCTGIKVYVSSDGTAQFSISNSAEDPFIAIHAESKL

[3] = molecular target: Lysosomal alpha-glucosidase (Mus musculus, UniProt P70699); test: Inhibition of liver glucosidase in Swiss mouse liver extracts
Sequence of Lysosomal alpha-glucosidase (P70699 whole entry): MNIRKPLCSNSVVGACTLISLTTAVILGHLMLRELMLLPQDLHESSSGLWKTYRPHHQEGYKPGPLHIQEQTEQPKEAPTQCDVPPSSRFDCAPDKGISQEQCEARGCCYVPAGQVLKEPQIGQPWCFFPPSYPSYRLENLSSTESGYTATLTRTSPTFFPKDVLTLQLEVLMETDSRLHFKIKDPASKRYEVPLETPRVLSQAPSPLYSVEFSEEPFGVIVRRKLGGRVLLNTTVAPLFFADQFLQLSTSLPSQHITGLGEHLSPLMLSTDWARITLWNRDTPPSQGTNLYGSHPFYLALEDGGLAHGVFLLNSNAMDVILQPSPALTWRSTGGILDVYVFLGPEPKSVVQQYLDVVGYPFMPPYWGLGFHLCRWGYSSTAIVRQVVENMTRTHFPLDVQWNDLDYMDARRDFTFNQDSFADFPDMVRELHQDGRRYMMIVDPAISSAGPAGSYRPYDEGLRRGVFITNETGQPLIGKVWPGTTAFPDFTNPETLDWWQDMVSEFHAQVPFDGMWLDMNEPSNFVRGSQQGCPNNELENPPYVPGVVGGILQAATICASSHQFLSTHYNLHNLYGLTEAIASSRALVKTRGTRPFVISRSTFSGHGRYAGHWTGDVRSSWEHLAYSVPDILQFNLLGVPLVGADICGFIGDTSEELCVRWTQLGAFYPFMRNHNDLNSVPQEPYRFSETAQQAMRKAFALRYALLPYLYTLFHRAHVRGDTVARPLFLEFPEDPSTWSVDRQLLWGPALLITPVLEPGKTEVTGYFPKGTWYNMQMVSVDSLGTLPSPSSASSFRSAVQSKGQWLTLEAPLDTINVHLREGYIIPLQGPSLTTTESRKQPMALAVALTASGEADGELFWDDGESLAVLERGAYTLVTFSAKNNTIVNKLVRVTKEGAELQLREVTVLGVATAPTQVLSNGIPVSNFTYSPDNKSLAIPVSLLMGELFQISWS

Row | SMILES | pIC50 [1] | pIC50 [2] | pIC50 (Pancreatic alpha-amylase) | pIC50 [3] | IC50 [1]
1 | COc1ccc2c(c1)SC1=NC(c3ccc(C)cc3)=C/C(=C\C#N)N12 | 4.56 | 4.53 | 4.71 | 4.74 | 
2 | N#C/C=C1\C=C(c2ccc(Br)cc2)N=C2Sc3ccccc3N21 |  | 4.64 | 4.82 | 4.55 | Not Active
3 | C[C@H]1O[C@H](O[C@H]2[C@H](O)[C@@H](O)[C@@H](O[C@H]3[C@H](O)[C@@H](O)C(O)O[C@@H]3CO)O[C@@H]2CO)[C@H](O)[C@@H](O)[C@@H]1N[C@H]1C=C(CO)[C@@H](O)[C@H](O)[C@H]1O (stereo not given in full) [ACARBOSE] |  | < 4.00 |  | < 4.00 | Not Active
4 | COc1ccc2c(c1)SC1=NC(c3ccc(Cl)cc3)=C/C(=C\C#N)N12 | 4.59 | 4.68 | 4.69 | 4.71 | 
5 | COc1ccc2c(c1)SC1=NC(c3ccc4ccccc4c3)=C/C(=C\C#N)N12 | 4.20 | 4.52 | 4.73 | 4.80 | 
6 | N#C/C=C1\C=C(c2ccc3ccccc3c2)N=C2Sc3ccccc3N21 | 4.65 | 4.64 | 4.70 | 4.67 | 
7 | COc1ccc2c(c1)SC1=NC(c3ccccc3)=C/C(=C\C#N)N12 | 4.38 | 4.53 | 4.65 | 4.60 | 

Continued by rising pIC50 [2], values first:

Row | pIC50 [1] | pIC50 [2] | pIC50 (Pancreatic alpha-amylase) | pIC50 [3] | SMILES | IC50 [1]
8 | 4.41 | 4.34 | 4.66 | 4.73 | CCOc1ccc2c(c1)SC1=NC(c3ccccc3)=C/C(=C\C#N)N12 | 
9 | 4.44 | 4.46 | 4.63 | 4.69 | Cc1ccc(C2=C/C(=C\C#N)N3C(=N2)Sc2ccccc23)cc1 | 
10 | 4.52 | 4.47 | 4.76 | 4.85 | COc1ccc2c(c1)SC1=NC(c3ccc(Br)cc3)=C/C(=C\C#N)N12 | 
11 | 4.49 | 4.67 | 4.64 | 4.63 | N#C/C=C1\C=C(c2ccccc2)N=C2Sc3ccccc3N21 | 
12 | 4.52 | 4.72 | 4.69 | 4.68 | COc1ccc2c(c1)SC1=NC(c3ccc(F)cc3)=C/C(=C\C#N)N12 | 
13 | 4.43 | 4.76 | 4.61 | 4.60 | N#C/C=C1\C=C(c2ccc(F)cc2)N=C2Sc3ccccc3N21 | 
14 | 4.75 | 4.76 | 4.66 | 4.66 | N#C/C=C1\C=C(c2ccc(Cl)cc2)N=C2Sc3ccccc3N21 | 
